Source: patent US20100173943A1, “INSECTICIDAL COMPOSITIONS WITH IMPROVED ACTION” (BAYER CROPSCIENCE AG, priority 2007, published 2010)

What was measured:
[1] = test system: cotton aphid (Aphis gossypii); experiment: Aphis gossypii test (APHIGO spray treatment); type: in vivo; details: cotton leaves sprayed, 6 days; for pest or weed control at 0.8 ppm / pest or weed control at 4 ppm / pest or weed control at 20 ppm: Aphis gossypii, 144 h, read-out: Kill in % after 6 days a.i.; for pest or weed control at 0.8 ppm: 0.8 ppm a.i. alone; for pest or weed control at 4 ppm: 4 ppm a.i. alone; for pest or weed control at 20 ppm: 20 ppm a.i. alone
Experimental: Aphis gossypii Test (APHIGO Spray Treatment)
(§1) Solvent: 7 parts by weight of dimethylformamide
(§2) Emulsifier: 2 parts by weight of alkylaryl polyglycol ether
(§3) To prepare a ready-to-use active ingredient formulation, 1 part by weight of active ingredient is mixed with the specified amounts of solvent and emulsifier and the concentrate is diluted with emulsifier-containing water to the desired concentration. In the case that addition of ammonium salts, penetrants, or ammonium salts and penetrants is required, they are pipetted in each case into the finished preparation solution after dilution in a concentration of 1000 ppm each.
Cotton leaves (Gossypium hirsutum) highly infested by the cotton aphid (Aphis gossypii) are sprayed with an active ingredient formulation with the desired concentration.
After the desired period, the kill rate in % is determined. 100% means that all aphids have been killed; 0% means that no aphids have been killed.

[2] = test system: green peach aphid (Myzus persicae); experiment: Myzus persicae test (MYZUPE); type: in vivo; details: pepper plants sprayed, 6 days; for pest or weed control at 0.8 ppm: 0.8 ppm a.i. alone; for pest or weed control at 4 ppm: 4 ppm a.i. alone; for pest or weed control at 20 ppm: 20 ppm a.i. alone
Experimental: Myzus persicae Test (MYZUPE)
as §1, §2
as §3, with “prepare an appropriate” for “prepare a ready-to-use”, “the given” for “the specified”, “and emulsifier,” for “and emulsifier”, “are pippetted” for “are pipetted”
Pepper plants (Capsicum annuum) highly infested by the green peach aphid (Myzus persicaei) are treated by spraying with the active ingredient formulation in the desired concentration.
After the desired time, the kill rate in % is determined. 100% means that all animals have been killed; 0% means that no animals have been killed.

[3] = 0.8 ppm a.i. + AMS and RME 1000 ppm each
[4] = 0.8 ppm a.i. + ammonium sulphate 1000 ppm
[5] = 0.8 ppm a.i. + rapeseed oil methyl ester 1000 ppm
[6] = 4 ppm a.i. + AMS and RME 1000 ppm each
[7] = 4 ppm a.i. + ammonium sulphate 1000 ppm
[8] = 4 ppm a.i. + rapeseed oil methyl ester 1000 ppm
[9] = Myzus persicae, 144 h, read-out: Kill in % after 6 days a.i.
[10] = 20 ppm a.i. + AMS and RME 1000 ppm each
[11] = 20 ppm a.i. + ammonium sulphate 1000 ppm
[12] = 20 ppm a.i. + rapeseed oil methyl ester 1000 ppm

Compound	Kill in % after 6 days +AMS + RME [1, 3]	Kill in % after 6 days +AMS [1, 4]	Kill in % after 6 days +RME [1, 5]	Kill in % after 6 days +AMS + RME [1, 6]	Kill in % after 6 days +AMS [1, 7]	Kill in % after 6 days +RME [1, 8]	pest or weed control at 0.8 ppm [1]	pest or weed control at 4 ppm [1]	Kill in % after 6 days +AMS + RME [2, 3]	Kill in % after 6 days +AMS [2, 4]	Kill in % after 6 days +RME [2, 5]	Kill in % after 6 days +AMS + RME [2, 6]	Kill in % after 6 days +AMS [2, 7]	Kill in % after 6 days +RME [2, 8]	pest or weed control at 0.8 ppm [2, 9]	pest or weed control at 4 ppm [2, 9]	also measured
O=C1C=C(N(Cc2cnc(Br)c(F)c2)CC(F)F)CO1 [Compound I-16, 4-{[(6-bromo-5-fluoropyrid-3-yl)methyl](2,2-difluoroethyl)amino}-furan-2(5H)-one]	5%	10%	10%	90%	95%	98%	0%	80%	10%	0%	10%	100%	99%	98%	5%	95%	
O=C1C=C(N(Cc2cnc(Cl)c(F)c2)CC(F)F)CO1 [Compound I-17, 4-{[(6-chloro-5-fluoropyrid-3-yl)methyl](2,2-difluoroethyl)amino}furan-2(5H)-one]	40%	20%	40%				0%		25%	5%	35%	100%	99%	100%	0%	95%	
CN(Cc1ccc(Cl)nc1)C1=CC(=O)CC1 [Compound I-18, 3-{[(6-chloropyrid-3-yl)methyl](methyl)amino}cyclopent-2-en-1-one]	90%	50%	75%				65%		70%	0%	98%	100%	95%	100%	25%	80%	
O=C1C=C(N(Cc2ccc(Cl)nc2)C2CC2)CC1 [Compound I-19, 3-{[(6-chloropyrid-3-yl)methyl](cyclopropyl)amino}cyclopent-2-en-1-one]	50%	0%	40%	80%	40%	85%	0%	15%									Kill in % after 6 days +AMS + RME [2, 10]: 100%; Kill in % after 6 days +AMS [2, 11]: 80%; Kill in % after 6 days +RME [2, 12]: 98%; pest or weed control at 20 ppm [2, 9]: 80%
CN(Cc1cccnc1)C1=CC(=O)OC1 [Compound I-21, 4-[methyl(pyrid-3-ylmethyl)amino]furan-2(5H)-one]				45%	5%	50%		10%									Kill in % after 6 days +AMS + RME ([2]; 100 ppm a.i. + AMS and RME 1000 ppm each): 65%; Kill in % after 6 days +AMS ([2]; 100 ppm a.i. + ammonium sulphate 1000 ppm): 70%; Kill in % after 6 days +RME ([2]; 100 ppm a.i. + rapeseed oil methyl ester 1000 ppm): 90%; pest or weed control at 100 ppm ([2]; Myzus persicae, 144 h, 100 ppm a.i. alone, read-out: Kill in % after 6 days a.i.): 50%
O=C1C=C(N(Cc2ccc(F)nc2)C2CC2)CO1 [Compound I-22, 4-{cyclopropyl[(6-fluoropyrid-3-yl)methyl]amino}furan-2(5H)-one]	45%	20%	30%	65%	70%	55%	25%	60%				80%	0%	70%		5%	Kill in % after 6 days +AMS + RME [2, 10]: 90%; Kill in % after 6 days +AMS [2, 11]: 80%; Kill in % after 6 days +RME [2, 12]: 85%; pest or weed control at 20 ppm [2, 9]: 65%
CN(Cc1ccc(C(F)(F)F)nc1)C1=CC(=O)OC1 [Compound I-23, 4-(methyl {[6-(trifluoromethyl)pyrid-3-yl]methyl}amino)furan-2(5H)-one]	25%	15%	50%				10%		80%	10%	75%				35%		
O=C1C=C(N(Cc2ccc(C(F)(F)F)nc2)C2CC2)CO1 [Compound I-24, 4-(cyclopropyl {[6-(trifluoromethyl)pyrid-3-yl]methyl}amino)furan-2(5H)-one]												75%	20%	85%		15%	Kill in % after 6 days +AMS + RME [1, 10]: 90%; Kill in % after 6 days +AMS [1, 11]: 85%; Kill in % after 6 days +RME [1, 12]: 85%; pest or weed control at 20 ppm [1]: 50%; Kill in % after 6 days +AMS + RME [2, 10]: 98%; Kill in % after 6 days +AMS [2, 11]: 90%; Kill in % after 6 days +RME [2, 12]: 95%; pest or weed control at 20 ppm [2, 9]: 75%
CC1OC(=O)C=C1N(C)Cc1ccc(Cl)nc1 (centres unmarked) [Compound I-25, 4-{[(6-chloropyrid-3-yl)methyl](methyl)amino}-5-methylfuran-2(5H)-one]				100%	60%	75%		65%				55%	50%	80%		0%	
CN(Cc1ccc(Br)nc1)C1=CC(=O)OC1 [Compound I-26, 4-{[(6-bromopyrid-3-yl)methyl](methyl)amino}furan-2(5H)-one]	98%	70%	98%				90%		95%	55%	100%				65%		
CN(Cc1ccc(Cl)nc1)C1=C(F)C(=O)OC1 [Compound I-28, 4-{[(6-chloropyrid-3-yl)methyl](methyl)amino}-3-fluorofuran-2(5H)-one]				80%	60%	75%		50%				95%	15%	90%		50%	Kill in % after 6 days +AMS + RME [1, 10]: 95%; Kill in % after 6 days +AMS [1, 11]: 90%; Kill in % after 6 days +RME [1, 12]: 95%; pest or weed control at 20 ppm [1]: 55%
CON(Cc1ccc(Cl)nc1)C1=CC(=O)OC1 [Compound I-29, 4-{[(6-chloropyrid-3-yl)methyl](methoxy)amino}furan-2(5H)-one]				75%	65%	50%		50%	50%	0%	30%				0%		
CCN(Cc1ccc(Cl)nc1)C1=CC(=O)OC1 [Compound I-30, 4-{[(6-chloropyrid-3-yl)methyl](ethyl)amino}furan-2(5H)-one]									45%	25%	95%				5%		Kill in % after 6 days +AMS + RME [1, 10]: 95%; Kill in % after 6 days +AMS [1, 11]: 100%; Kill in % after 6 days +RME [1, 12]: 100%; pest or weed control at 20 ppm [1]: 80%
